Measurements taken from ChEMBL document CHEMBL1147452, “A new approach to the synthesis of optically active alkylated adenine derivatives” (Bioorg Med Chem Lett, 2004).

Assays:
[1] = Cytotoxic concentration at which cell viability was reduced by 50%; format: functional
[2] = tested on: Monkeypox virus; assay: Inhibitory concentration required against Monkeypox virus in Vero cell culture; format: functional, organism-based
[3] = tested on: Vaccinia virus; assay: Inhibitory concentration required against vaccinia virus in Vero cell culture; format: functional, organism-based; conditions: Orthopoxvirus vaccinia
[4] = tested on: Cowpox virus; assay: Inhibitory concentration required against Cowpox virus in Vero cell culture; format: functional, organism-based
[5] = tested on: Variola virus; assay: Inhibitory concentration required against replication of small pox virus (strain India 3a) in Vero cells; format: functional, organism-based

Nc1ncnc2c1ncn2C[C@H]1COP(=O)(O)CO1
CC50 [1]: > 350 µM
IC50 [2]: 48 µM
IC50 [3]: 41 µM
IC50 [4]: 61 µM

Nc1ncnc2c1ncn2C[C@H](O)C(=O)O
IC50 [5]: 91 µM

Nc1ncnc2c1ncn2C[C@@H]1COP(=O)(O)CO1
CC50 [1]: > 350 µM
IC50 [2]: > 350 µM
IC50 [3]: > 350 µM
IC50 [4]: > 350 µM

Nc1ncnc2c1ncn2C[C@@H](O)CO
CC50 [1]: > 500 µM
IC50 [2]: > 500 µM
IC50 [3]: > 500 µM
IC50 [4]: > 500 µM

COC(CO)O[C@@H](CO)Cn1cnc2c(N)ncnc21 (some centres undefined)
IC50 [5]: 62 µM

Nc1ncnc2c1ncn2C[C@H](O)CO [(S)-DHPA]
CC50 [1]: > 500 µM
IC50 [2]: 54 µM
IC50 [3]: 34 µM
IC50 [5]: 41 µM
IC50 [4]: 49 µM
